13 compounds from PubChem BioAssay (NCI) can be followed below.

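A five-concentration, 48-hour dose response in 96-well plates underlies each endpoint, interpolated linearly between surrounding concentrations. GI50: concentration for 50% inhibition of growth. TGI: concentration producing complete growth inhibition.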 Some results are limits rather than exact numbers.

Some test systems named below: HS 578T breast; DMS 114 small cell lung; LXFL 529 NSCLC; MCF7 breast; PC-3 prostate; MDA-MB-435; NCI/ADR-RES ovarian; BT-549 breast; DMS 273 small cell lung; KM20L2 colon.
Holding throughout (test): NCI anticancer screen, dose series, 48 h

Regarding `CNCCCNc1c2ccccc2nc2cccc([N+](=O)[O-])c12`, the TGI was determined as 0.00826 µM in the test on HS 578T breast; 0.0108 µM with DMS 114 small cell lung; 0.0288 µM with LXFL 529 NSCLC; 0.089 µM in the test with MCF7 breast; 0.00489 µM with PC-3 prostate; 0.00324 µM in the test with MDA-MB-435. Besides, the TGI with NCI/ADR-RES ovarian is 0.0346 µM; in the test on BT-549 breast, 0.0101 µM; with DMS 273 small cell lung, 0.0465 µM; in the test on KM20L2 colon, 0.0458 µM.
As to `CN(C)CCCCCNc1c2ccccc2nc2cccc([N+](=O)[O-])c12`, the TGI with HS 578T breast worked out at 0.0059 µM; in the test on DMS 114 small cell lung, 0.0118 µM; in the test on LXFL 529 NSCLC, 0.085 µM; in the test with MCF7 breast, 0.000689 µM; in the test on MDA-MB-435, 0.000488 µM; with NCI/ADR-RES ovarian, 0.0055 µM. Also, the TGI with BT-549 breast was determined as 0.00262 µM; in the test with DMS 273 small cell lung, 0.0152 µM; in the test with KM20L2 colon, 0.0532 µM. The GI50 in the test with MCF7 breast was 0.000212 µM.
As for `CCC[CH2][Sn]([CH2]CCC)([O]C(=O)c1cccc(F)c1F)[O]C(=O)c1cccc(F)c1F`, the GI50 in the test with DMS 114 small cell lung is 0.291 µM; in the test with LXFL 529 NSCLC, 0.189 µM; in the test on DMS 273 small cell lung it was 1.11 µM; in the test on KM20L2 colon it was 1.63 µM. Further, the values for the TGI in the test with LXFL 529 NSCLC, with DMS 273 small cell lung and with KM20L2 colon were 0.526 µM, 2.33 µM and 3.06 µM, respectively.
`C1CC2=C(C1)C1=S(S2)SC2=C1CCC2`: the TGI in the test on DMS 114 small cell lung, in the test with LXFL 529 NSCLC, in the test on DMS 273 small cell lung and in the test on KM20L2 colon was above 100 µM each time.
In the case of `CCC(C)(O)c1cn(-c2ccc(S(=O)(=O)O)cc2)nn1` (stereo not given), the TGI in the test with DMS 114 small cell lung, in the test with LXFL 529 NSCLC, in the test with DMS 273 small cell lung and with KM20L2 colon was above 100 µM in each case.
`CCN(CC)c1ccc(N=Nc2ccc(-c3nc4cccn(C)c-4n3)cc2)cc1`: the TGI in the test with DMS 114 small cell lung was found to be 13 µM; with LXFL 529 NSCLC, 15.8 µM; with DMS 273 small cell lung it was 13.2 µM; in the test with KM20L2 colon it was 27.8 µM.
On to `COC(=O)CC(C(C(C)=O)C(=O)OCc1ccccc1)N1C(=O)OC(c2ccccc2)C1c1ccccc1` (stereo not given), for which the TGI in the test with DMS 114 small cell lung, in the test on LXFL 529 NSCLC, in the test with DMS 273 small cell lung and in the test on KM20L2 colon was above 100 µM in each case. Besides, in the test with KM20L2 colon, the GI50 is above 100 µM.
On to `COC(=O)N/N=C(\C)C(CN(C)C)C(c1ccccc1)c1c(O)c2ccccc2oc1=O` (stereo not given), for which the TGI in the test on DMS 114 small cell lung, in the test with LXFL 529 NSCLC, with DMS 273 small cell lung and in the test with KM20L2 colon was above 100 µM in each case.
For `Cc1ccccc1N=Nc1c(-c2ccccc2)nn(C(=O)CC(=O)Nc2cccc(Cl)c2)c1-c1ccccc1`, the TGI with DMS 114 small cell lung was 22.1 µM; in the test with LXFL 529 NSCLC, above 31.6 µM; in the test on DMS 273 small cell lung it was above 31.6 µM; in the test with KM20L2 colon it was above 31.6 µM.
For `NC(=S)N/N=C1/CN(c2ccc(Cl)c(Cl)c2)CC(=O)C1c1nc2ccccc2s1` (stereo not given), the TGI with DMS 114 small cell lung, in the test on LXFL 529 NSCLC, in the test with DMS 273 small cell lung and with KM20L2 colon was above 100 µM throughout.
On to `COc1ccc2c(c1)CCc1c(CO)c(COC(=O)NC(C)C)n(C)c1-2`, for which the TGI was 12.3 µM in the test on DMS 114 small cell lung; 15.9 µM in the test with LXFL 529 NSCLC; above 100 µM in the test on MCF7 breast; 59.2 µM with NCI/ADR-RES ovarian; 41.4 µM with DMS 273 small cell lung; 35.3 µM in the test on KM20L2 colon.
For the compound `O/N=C\C(=Nc1ccc(Cc2ccc(N=C(/C=N\O)NO)cc2)cc1)NO`, the TGI in the test on DMS 114 small cell lung, in the test on LXFL 529 NSCLC, in the test on DMS 273 small cell lung and in the test on KM20L2 colon was above 100 µM throughout.
For `C=C(CO)CC(/C=C(\C)CC/C=C(\C)CCl)OC(C)=O` (stereo not given), the TGI with DMS 114 small cell lung, in the test on LXFL 529 NSCLC, in the test with DMS 273 small cell lung and in the test with KM20L2 colon was above 100 µM each time.
